# From US8822451B2, “Modulators of ATP-binding cassette transporters” (Vertex Pharmaceuticals Incorporated, priority 2005, dated 2014)
# Target: T1, […]F508-CFTR (Homo sapiens, UniProt P13569, DEL508-508)
# T1 construct: expressed in transfected cells
# Experiment: Assay results of Table 3: ΔF508-CFTR modulation, membrane potential optical assay (assay format not stated)
# Assay type: cell-based
# Conditions: NIH3T3 mouse fibroblasts stably expressing […]F508-CFTR (optical assays); for Efficacy: efficacy range; for EC50: potency range
# Text: A. Membrane Potential Optical Methods for Assaying […]F508-CFTR Modulation Properties of Compounds
# The optical membrane potential assay utilized voltage-sensitive FRET sensors described by Gonzalez and Tsien (See, Gonzalez, J. E. and R. Y. Tsien (1995) “Voltage sensing by fluorescence resonance energy transfer in single cells” Biophys J 69(4): 1272-80, and Gonzalez, J. E. and R. Y. Tsien (1997) “Improved indicators of cell membrane potential that use fluorescence resonance energy transfer” Chem Biol 4(4): 269-77) in combination with instrumentation for measuring fluorescence changes such as the Voltage/Ion Probe Reader (VIPR) (See, Gonzalez, J. E., K. Oades, et al. (1999) “Cell-based assays and instrumentation for screening ion-channel targets” Drug Discov Today 4(9): 431-439).
# These voltage sensitive assays are based on the change in fluorescence resonant energy transfer (FRET) between the membrane-soluble, voltage-sensitive dye, DiSBAC2(3), and a fluorescent phospholipid, CC2-DMPE, which is attached to the outer leaflet of the plasma membrane and acts as a FRET donor. Changes in membrane potential (Vm) cause the negatively charged DiSBAC2(3) to redistribute across the plasma membrane and the amount of energy transfer from CC2-DMPE changes accordingly. The changes in fluorescence emission were monitored using VIPR™ II, which is an integrated liquid handler and fluorescent detector designed to conduct cell-based screens in 96- or 384-well microtiter plates.
# To identify small molecules that correct the trafficking defect associated with ΔF508-CFTR; a single-addition HTS assay format was developed. The cells were incubated in serum-free medium for 16 hrs at 37° C. in the presence or absence (negative control) of test compound. As a positive control, cells plated in 384-well plates were incubated for 16 hrs at 27° C. to “temperature-correct” […]F508-CFTR. The cells were subsequently rinsed 3× with Krebs Ringers solution and loaded with the voltage-sensitive dyes. To activate […]F508-CFTR, 10 µM forskolin and the CFTR potentiator, genistein (20 µM), were added along with Cl^−-free medium to each well. The addition of Cl^−-free medium promoted Cl^− efflux in response to […]F508-CFTR activation and the resulting membrane depolarization was optically monitored using the FRET-based voltage-sensor dyes.
# To identify potentiators of […]F508-CFTR, a double-addition HTS assay format was developed. During the first addition, a Cl^−-free medium with or without test compound was added to each well. After 22 sec, a second addition of Cl^−-free medium containing 2-10 µM forskolin was added to activate […]F508-CFTR. The extracellular Cl^− concentration following both additions was 28 mM, which promoted Cl^− efflux in response to […]F508-CFTR activation and the resulting membrane depolarization was optically monitored using the FRET-based voltage-sensor dyes.
# Bath Solution #1: (in mM) NaCl 160, KCl 4.5, CaCl2 2, MgCl2 1, HEPES 10, pH 7.4 with NaOH.
# Chloride-free bath solution: Chloride salts in Bath Solution #1 are substituted with gluconate salts.
# CC2-DMPE: Prepared as a 10 mM stock solution in DMSO and stored at −20° C.
# DiSBAC2(3): Prepared as a 10 mM stock in DMSO and stored at −20° C.
# NIH3T3 mouse fibroblasts stably expressing […]F508-CFTR are used for optical measurements of membrane potential. The cells are maintained at 37° C. in 5% CO2 and 90% humidity in Dulbecco's modified Eagle's medium supplemented with 2 mM glutamine, 10% fetal bovine serum, 1× NEAA, […]-ME, 1× pen/strep, and 25 mM HEPES in 175 cm^2 culture flasks. For all optical assays, the cells were seeded at 30,000/well in 384-well matrigel-coated plates and cultured for 2 hrs at 37° C. before culturing at 27° C. for 24 hrs for the potentiator assay. For the correction assays, the cells are cultured at 27° C. or 37° C. with and without compounds for 16-24 hoursB.
# T1 sequence (P13569 with tags, fused parts or gaps DEL508-508): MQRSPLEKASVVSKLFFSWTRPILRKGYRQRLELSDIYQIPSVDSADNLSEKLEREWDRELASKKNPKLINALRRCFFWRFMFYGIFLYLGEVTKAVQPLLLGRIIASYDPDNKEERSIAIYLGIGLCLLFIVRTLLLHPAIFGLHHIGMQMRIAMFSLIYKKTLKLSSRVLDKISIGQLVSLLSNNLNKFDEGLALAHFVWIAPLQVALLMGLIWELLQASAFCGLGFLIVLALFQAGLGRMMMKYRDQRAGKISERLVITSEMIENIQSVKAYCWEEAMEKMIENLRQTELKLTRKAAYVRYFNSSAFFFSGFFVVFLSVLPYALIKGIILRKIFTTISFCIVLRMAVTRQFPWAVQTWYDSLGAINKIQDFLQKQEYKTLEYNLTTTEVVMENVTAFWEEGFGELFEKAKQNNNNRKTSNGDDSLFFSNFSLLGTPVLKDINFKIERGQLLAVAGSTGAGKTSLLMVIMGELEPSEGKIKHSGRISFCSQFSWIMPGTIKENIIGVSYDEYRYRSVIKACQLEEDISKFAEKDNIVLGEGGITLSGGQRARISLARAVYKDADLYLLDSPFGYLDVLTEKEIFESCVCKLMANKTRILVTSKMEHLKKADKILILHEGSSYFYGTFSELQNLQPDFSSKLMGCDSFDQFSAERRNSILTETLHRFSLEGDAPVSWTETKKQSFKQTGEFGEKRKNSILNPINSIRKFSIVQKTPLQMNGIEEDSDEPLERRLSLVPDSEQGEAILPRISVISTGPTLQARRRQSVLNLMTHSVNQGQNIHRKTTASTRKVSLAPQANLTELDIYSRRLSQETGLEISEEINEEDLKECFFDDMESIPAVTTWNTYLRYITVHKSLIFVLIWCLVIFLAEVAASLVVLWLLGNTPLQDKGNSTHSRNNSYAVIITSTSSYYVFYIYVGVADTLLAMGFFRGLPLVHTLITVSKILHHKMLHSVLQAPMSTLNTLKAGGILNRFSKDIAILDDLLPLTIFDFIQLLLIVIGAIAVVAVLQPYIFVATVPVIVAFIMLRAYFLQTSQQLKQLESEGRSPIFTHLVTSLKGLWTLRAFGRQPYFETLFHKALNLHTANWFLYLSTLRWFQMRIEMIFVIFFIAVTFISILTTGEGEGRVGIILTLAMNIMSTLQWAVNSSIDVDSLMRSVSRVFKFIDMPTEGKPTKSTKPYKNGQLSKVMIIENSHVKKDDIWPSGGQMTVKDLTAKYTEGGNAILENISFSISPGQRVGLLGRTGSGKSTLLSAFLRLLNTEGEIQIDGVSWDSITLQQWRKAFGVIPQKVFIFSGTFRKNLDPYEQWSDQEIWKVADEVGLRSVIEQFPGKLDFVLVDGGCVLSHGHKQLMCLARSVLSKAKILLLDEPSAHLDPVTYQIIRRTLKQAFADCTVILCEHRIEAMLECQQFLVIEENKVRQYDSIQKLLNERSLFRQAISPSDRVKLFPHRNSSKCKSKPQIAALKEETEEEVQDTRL
Structure (SMILES),Efficacy,EC50 [µM]
CCCN(CC1CC1)c1nc(C(N)=O)cc(-c2cccc(OC)c2)n1 [Compound 89],+++ (+++ corresponds to Efficacy greater than 100),1 to 5
COc1ccccc1-c1cc(C(N)=O)nc(N(CCO)CCO)n1 [Compound 90],+ (+ corresponds to Efficacy less than 50),> 5
CCNC(=O)c1cc(-c2ccccc2)nc(N(CC)CC)n1 [Compound 91],+++ (+++ corresponds to Efficacy greater than 100),1 to 5
NC(=O)c1cc(-c2ccccc2)nc(N(Cc2ccccc2)Cc2ccccc2)n1 [Compound 92],++ (++ corresponds to Efficacy between 100 and 50),1 to 5
O=C(c1cc(-c2ccccc2)nc(N2CC=CC2)n1)N1CC=CC1 [Compound 93],++ (++ corresponds to Efficacy between 100 and 50),> 5
CCN(CC)c1nc(C(N)=O)cc(-c2ccccc2F)n1 [Compound 94],+++ (+++ corresponds to Efficacy greater than 100),1 to 5
NC(=O)c1cc(-c2cccc(Cl)c2Cl)nc(N2CCCCC2)n1 [Compound 95],++ (++ corresponds to Efficacy between 100 and 50),1 to 5
NC(=O)c1cc(-c2ccccc2)nc(N2CCC(O)(c3cccc(C(F)(F)F)c3)CC2)n1 [Compound 96],++ (++ corresponds to Efficacy between 100 and 50),> 5
CCN(CC)c1nc(C(=O)NCc2ccccc2)cc(-c2ccccc2)n1 [Compound 97],++ (++ corresponds to Efficacy between 100 and 50),> 5
CCN(CC)c1nc(C(N)=O)cc(-c2cccc(Cl)c2)n1 [Compound 98],+++ (+++ corresponds to Efficacy greater than 100),< 1
CCOC(=O)C1CCN(c2nc(C(N)=O)cc(-c3ccccc3)n2)CC1 [Compound 99],+ (+ corresponds to Efficacy less than 50),1 to 5
CCCN(CCO)c1nc(C(N)=O)cc(-c2ccccc2)n1 [Compound 100],++ (++ corresponds to Efficacy between 100 and 50),1 to 5
CN(CC(O)c1ccccc1)c1nc(C(N)=O)cc(-c2ccccc2)n1 (centres unmarked) [Compound 101],+++ (+++ corresponds to Efficacy greater than 100),> 5
CCNc1nc(C(N)=O)cc(-c2ccc(OC)cc2)n1 [Compound 102],++ (++ corresponds to Efficacy between 100 and 50),> 5
CNC(=O)c1cc(-c2ccccc2)nc(NC)n1 [Compound 103],+ (+ corresponds to Efficacy less than 50),< 1
CC(C)CCN(CCC(C)C)c1nc(C(N)=O)cc(-c2ccccc2)n1 [Compound 104],+ (+ corresponds to Efficacy less than 50),1 to 5
COc1cccc(-c2cc(C(N)=O)nc(N3CCCCC3)n2)c1F [Compound 105],+++ (+++ corresponds to Efficacy greater than 100),> 5
NC(=O)c1cc(-c2ccc(Cl)cc2Cl)nc(N2CCCCC2)n1 [Compound 106],+++ (+++ corresponds to Efficacy greater than 100),1 to 5
CCN(CC)c1nc(C(N)=O)cc(-c2ccc(F)cc2F)n1 [Compound 107],++ (++ corresponds to Efficacy between 100 and 50),< 1
CCN(CC)c1nc(C(N)=O)cc(-c2c(OC)cccc2OC)n1 [Compound 108],++ (++ corresponds to Efficacy between 100 and 50),> 5
CCN(CC)c1nc(C(N)=O)cc(-c2ccc(OC)cc2)n1 [Compound 109],+++ (+++ corresponds to Efficacy greater than 100),< 1
CCN(CC)c1nc(C(N)=O)cc(-c2ccccc2OC)n1 [Compound 110],+++ (+++ corresponds to Efficacy greater than 100),< 1

Structure (SMILES),Efficacy,EC50 [µM]
N#Cc1cccc(-c2cc(C(N)=O)nc(N3CCCCC3)n2)c1 [Compound 111],++ (++ corresponds to Efficacy between 100 and 50),> 5
NC(=O)c1cc(-c2ccccc2)nc(NC2CCCC2)n1 [Compound 112],+ (+ corresponds to Efficacy less than 50),> 5
CC1CC(C)CN(c2nc(C(N)=O)cc(-c3ccccc3)n2)C1 (centres unmarked) [Compound 113],++ (++ corresponds to Efficacy between 100 and 50),1 to 5
Cc1ccccc1-c1cc(C(N)=O)nc(N2CCCCC2)n1 [Compound 114],+++ (+++ corresponds to Efficacy greater than 100),1 to 5
COc1ccc(Cl)cc1-c1cc(C(N)=O)nc(N2CCCCC2)n1 [Compound 115],++ (++ corresponds to Efficacy between 100 and 50),1 to 5
CCc1ccc(-c2cc(C(N)=O)nc(N(CC)CC)n2)cc1 [Compound 116],+++ (+++ corresponds to Efficacy greater than 100),1 to 5
CCN(CC)c1nc(C(=O)N(C)C)cc(-c2ccccc2)n1 [Compound 117],+++ (+++ corresponds to Efficacy greater than 100),> 5
CCCCN(CCC)c1nc(C(N)=O)cc(-c2ccccc2)n1 [Compound 118],++ (++ corresponds to Efficacy between 100 and 50),< 1
CCN(CC)c1nc(C(N)=O)cc(-c2ccccc2)n1 [Compound 119],+++ (+++ corresponds to Efficacy greater than 100),< 1
CCN(CC)c1nc(C(N)=O)cc(-c2cccc(C)c2C)n1 [Compound 120],++ (++ corresponds to Efficacy between 100 and 50),< 1
CCCCN(CC)c1nc(C(N)=O)cc(-c2ccccc2)n1 [Compound 121],+++ (+++ corresponds to Efficacy greater than 100),1 to 5
NC(=O)c1cc(-c2cccc(F)c2)nc(N2CCCCC2)n1 [Compound 122],+++ (+++ corresponds to Efficacy greater than 100),> 5
CCN(CCO)c1nc(C(N)=O)cc(-c2cccc(OC)c2)n1 [Compound 123],+ (+ corresponds to Efficacy less than 50),> 5
COc1ccc(-c2cc(C(N)=O)nc(N3CCCCC3)n2)cc1OC [Compound 124],+++ (+++ corresponds to Efficacy greater than 100),1 to 5
CCN(CC)c1nc(C(N)=O)cc(-c2c(F)cccc2F)n1 [Compound 125],++ (++ corresponds to Efficacy between 100 and 50),< 1
NC(=O)c1cc(-c2ccccc2)nc(NCc2ccccc2)n1 [Compound 126],++ (++ corresponds to Efficacy between 100 and 50),> 5
CCOc1ccccc1-c1cc(C(N)=O)nc(N2CCCCC2)n1 [Compound 127],++ (++ corresponds to Efficacy between 100 and 50),1 to 5
CN(C)C(=O)c1cc(-c2ccccc2)nc(NCc2ccco2)n1 [Compound 128],+ (+ corresponds to Efficacy less than 50),> 5
COc1ccc(-c2cc(C(N)=O)nc(N3CC=CCC3)n2)cc1 [Compound 129],++ (++ corresponds to Efficacy between 100 and 50),> 5
N#Cc1ccc(-c2cc(C(N)=O)nc(N3CCCCC3)n2)cc1 [Compound 130],+ (+ corresponds to Efficacy less than 50),> 5
CCN(CC)c1nc(C(N)=O)cc(-c2ccc(F)c(C)c2)n1 [Compound 131],+++ (+++ corresponds to Efficacy greater than 100),1 to 5
